Numbers after ± are expanded uncertainties.
Settings: Liquid, Closed cell (Static) method

| vapor or sublimation pressure (273.15 K) [kPa] | vapor or sublimation pressure (283.15 K) [kPa] | vapor or sublimation pressure (293.15 K) [kPa] | vapor or sublimation pressure (303.15 K) [kPa] | vapor or sublimation pressure (313.15 K) [kPa] | vapor or sublimation pressure (323.15 K) [kPa] | vapor or sublimation pressure (333.15 K) [kPa] | vapor or sublimation pressure (343.15 K) [kPa] | vapor or sublimation pressure (353.15 K) [kPa] | vapor or sublimation pressure (363.15 K) [kPa] | SMILES |
| --- | --- | --- | --- | --- | --- | --- | --- | --- | --- | --- |
| 0.026 ± 0.002 | 0.064 ± 0.005 | 0.144 ± 0.01 | 0.299 ± 0.019 | 0.585 ± 0.037 | 1.081 ± 0.028 | 1.902 ± 0.023 | 3.206 ± 0.032 | 5.201 ± 0.045 | 8.153 ± 0.065 | CCC(N)CCN (stereo not given) [1,3-pentanediamine] |
| 0.004 ± 0.001 | 0.011 ± 0.001 | 0.028 ± 0.002 | 0.065 ± 0.005 | 0.137 ± 0.009 | 0.274 ± 0.017 | 0.519 ± 0.033 | 0.934 ± 0.024 | 1.611 ± 0.022 | 2.67 ± 0.028 | CC(CN)CCCN (stereo not given) [2-methyl-1,5-pentanediamine] |
